Experimental findings from US20260226073A1 (AURIGENE ONCOLOGY LIMITED, priority 2023, published 2026) are described below.

For assay [1], the target named is T1, human recombinant CBL-b (human Biotin CBL-b recombinant protein a.a. 39-426) (Homo sapiens, UniProt Q13191).
T1 construct: human Biotin CBL-b recombinant protein a.a; 39-426; Biotin (biotinylated); made in house
Nature of the assay: Biochemical assay for CBL-b inhibition (ligand displacement TR-FRET). Format: binding. Particulars: 50 nM CBL-b, 0.3 μM Bodipy FL-Probe, read-out: IC50 (CBL-b inhibition, group). In outline: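 Biotinylated CBL-b (a.a. 39-426, 50 nM final) pre-incubated with compound 60 min at RT in HEPES/NaCl/Triton/BSA/TCEP buffer, then Bodipy FL probe (0.3 μM final) 60 min, then terbium-streptavidin 60 min. TR-FRET read at 665/615 nm; IC50 and % max inhibition from sigmoidal fits.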
On the technique in general: Time-resolved FRET reads energy transfer from a long-lived donor to a nearby acceptor.

Assay [2] has as its system NFAT signaling pathway in Jurkat NFAT reporter cells. As to the kind of experiment: Jurkat NFAT reporter assay. In kind it is cell-based. As to conditions: Homo sapiens, 30 min with compound, then soluble anti-human CD3/CD28 antibody for 6 hours, luciferase readout, read-out: EC50 (Group). The procedure, abridged: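 Jurkat cells bearing an NFAT-RE-driven luciferase reporter (1×10^5 per well) preincubated with Cbl-b inhibitor for 30 min, then stimulated 6 h with soluble anti-CD3/CD28. Luminescence read with Bio-Glo; values are fold change over anti-CD3/CD28-stimulated cells without inhibitor.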
(In general: A reporter such as luciferase makes a cellular process visible.)

T1 sequence (Q13191 39-426): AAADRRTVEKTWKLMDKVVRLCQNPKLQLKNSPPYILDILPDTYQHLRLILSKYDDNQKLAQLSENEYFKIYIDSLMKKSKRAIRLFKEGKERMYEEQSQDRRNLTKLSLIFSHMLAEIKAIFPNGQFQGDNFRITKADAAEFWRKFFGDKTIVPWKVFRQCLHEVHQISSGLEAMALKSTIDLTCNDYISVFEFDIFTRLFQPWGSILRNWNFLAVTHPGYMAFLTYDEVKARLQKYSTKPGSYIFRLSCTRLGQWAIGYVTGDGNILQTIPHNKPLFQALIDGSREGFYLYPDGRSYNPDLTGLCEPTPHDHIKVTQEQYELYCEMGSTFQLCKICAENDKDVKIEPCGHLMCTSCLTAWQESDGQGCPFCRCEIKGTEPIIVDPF

For the compound `CC1CN(Cc2cc(N3Cc4ccc(C5(Cc6nncn6C)COC5)cc4C3=O)nc(C(F)(F)F)c2)CCC1(F)F` (stereo not shown) [Compound 28, 2-(4-((4,4-Difluoro-3-methylpiperidin-1-yl)methyl)-6-(trifluoromethyl)pyridin-2-yl)-6-(3-((4-methyl-4H-1,2,4-triazol-3-yl)methyl)oxetan-3-yl)isoindolin-1-one], the IC50 – broadly, the concentration at which inhibition is half-maximal – in assay [1] is 80 to 300 nM. Moreover, in assay [2], the EC50 (as a rule, the midpoint of the concentration-response curve) is 300 to 1000 nM.

For the compound `C[C@H]1CCCN(Cc2cc(Cl)nc(N3Cc4ccc([C@@H](C)Cc5nncn5C)cc4C3=O)c2)C1` (single isomer, unassigned) [Compound 91], in assay [1], the IC50 was under 80 nM. Moreover, the EC50 in assay [2] is under 300 nM.

On to `Cn1cnnc1-c1cc(Cl)ccc1-c1ccc2c(c1)C(=O)N(c1cc(CNC3CCCC3)cc(Cl)n1)C2` [Compound 106, 6-(4-Chloro-2-(4-methyl-4H-1,2,4-triazol-3-yl)phenyl)-2-(6-chloro-4-((cyclo-pentylamino)methyl)pyridin-2-yl)isoindolin-1-one], for which the IC50 in assay [1] is 80 to 300 nM. Moreover, the EC50 in assay [2] was 300 to 1000 nM.

On to `CCC(C)NCc1cc(C)nc(N2Cc3ccc(-c4ccc(F)cc4-c4nncn4C)cc3C2=O)c1` (stereo not shown) [Compound 295, 2-(4-((sec-Butylamino)methyl)-6-methylpyridin-2-yl)-6-(4-fluoro-2-(4-methyl-4H-1,2,4-triazol-3-yl)phenyl)isoindolin-1-one], for which, in assay [1], the 50% inhibitory concentration (IC50) was under 80 nM. In addition, the EC50 in assay [2] was under 300 nM.

`C[C@@H](Cc1nncn1C)c1ccc2c(c1)C(=O)N(c1cc(CNCC3CCC3)cc(Cl)n1)C2` (single isomer, unassigned) [Compound 171]: in assay [1], the IC50 is under 80 nM. In addition, in assay [2], the EC50 was under 300 nM.

With `Cn1cnnc1-c1cc(F)ccc1-c1ccc2c(c1)C(=O)N(c1cc(CNCC3CC3)cc(C(F)(F)F)n1)C2` [Compound 265, 2-(4-(((Cyclopropylmethyl)amino)methyl)-6-(trifluoromethyl)pyridin-2-yl)-6-(4-fluoro-2-(4-methyl-4H-1,2,4-triazol-3-yl)phenyl)isoindolin-1-one], in assay [1], the half-inhibitory concentration (IC50) is under 80 nM. For the same compound, in assay [2], the EC50 was under 300 nM.

Regarding `Cn1cnnc1CC1(c2ccc3c(c2)C(=O)N(c2cc(CN4CCCC(F)(F)C4)cc(C(F)(F)F)n2)C3)COC1` [Compound 47, 2-(4-((3,3-Difluoropiperidin-1-yl)methyl)-6-(trifluoromethyl)pyridin-2-yl)-6-(3-((4-methyl-4H-1,2,4-triazol-3-yl)methyl)oxetan-3-yl)isoindolin-1-one], in assay [1], the IC50 lay in the range of 80 to 300 nM. The EC50 in assay [2] fell in the range of 1000 to 10000 nM.

On to `C[C@@H]1C[C@H](C)CN(Cc2cc(N3Cc4ccc(C5(Cc6nncn6C)CCC5)cc4C3=O)nc(C(F)(F)F)c2)C1` [Compound 82, 2-(4-(((3S,5R)-3,5-Dimethylpiperidin-1-yl)methyl)-6-(trifluoromethyl)pyridin-2-yl)-6-(1-((4-methyl-4H-1,2,4-triazol-3-yl)methyl)cyclobutyl)isoindolin-1-one], for which, in assay [1], the IC50 is under 80 nM. The EC50 in assay [2] was under 300 nM.

For the compound `Cn1cnnc1CC1(c2ccc3c(c2)C(=O)N(c2cc(CNCC4CC4(F)F)cc(Cl)n2)C3)CC(C#N)C1` (stereo not shown) [Compound 230, 3-(2-(6-Chloro-4-((((2,2-difluorocyclopropyl)methyl)amino)methyl)pyridin-2-yl)-3-oxoisoindolin-5-yl)-3-((4-methyl-4H-1,2,4-triazol-3-yl)methyl)cyclobutane-1-carbonitrile], in assay [1], the IC50 was under 80 nM. In assay [2], the EC50 fell in the range of 300 to 1000 nM.

As for `C[C@H](NCC1CC1)c1cc(Cl)nc(N2Cc3ccc(-c4ccc(Cl)cc4-c4nncn4C)cc3C2=O)c1` (single isomer, unassigned) [Compound 111, 6-(4-Chloro-2-(4-methyl-4H-1,2,4-triazol-3-yl)phenyl)-2-(6-chloro-4-(1-((cyclo-propylmethyl)amino)ethyl)pyridin-2-yl)isoindolin-1-one], the IC50 in assay [1] was under 80 nM. The EC50 in assay [2] was under 300 nM.

In the case of `C[C@H]1CCCN(Cc2cc(Cl)nc(N3Cc4ccc(C5(Cc6nncn6C)CC(C#N)C5)cc4C3=O)c2)C1` (stereo partly shown) [Compound 85], the IC50 in assay [1] was under 80 nM. Moreover, in assay [2], the EC50 is under 300 nM.

As to `C[C@H]1CCCN(Cc2cc(N3Cc4ccc(C5(Cc6nncn6C)COC5)cc4C3=O)cc(C(C)(C)C)c2)C1` [Compound 16, (S)-2-(3-(tert-Butyl)-5-((3-methylpiperidin-1-yl)methyl)phenyl)-6-(3-((4-methyl-4H-1,2,4-triazol-3-yl)methyl)oxetan-3-yl)isoindolin-1-one], in assay [1], the IC50 is 80 to 300 nM. In addition, the EC50 in assay [2] lay within 300 to 1000 nM.

Turning to `C[C@H]1CCCN(Cc2cc(C3CC3)nc(N3Cc4ccc(C5(Cc6nncn6C)COC5)cc4C3=O)c2)C1` [Compound 73, (S)-2-(6-Cyclopropyl-4-((3-methylpiperidin-1-yl)methyl)pyridin-2-yl)-6-(3-((4-methyl-4H-1,2,4-triazol-3-yl)methyl)oxetan-3-yl)isoindolin-1-one], the half-inhibitory concentration (IC50) in assay [1] lay within 80 to 300 nM. The EC50 in assay [2] lay in the range of 1000 to 10000 nM.

As to `C[C@H](NCC1CC(F)(F)C1)c1cc(Cl)nc(N2Cc3ccc(C4(Cc5nncn5C)COC4)cc3C2=O)c1` (single isomer, unassigned) [Compound 222], the IC50 in assay [1] is under 80 nM. Also, the EC50 in assay [2] was under 300 nM.

With `Cn1cnnc1CC1(c2ccc3c(c2)C(=O)N(c2cc(CNCC4CCCC4)cc(Cl)n2)C3)COC1` [Compound 159, 2-(6-Chloro-4-(((cyclopentylmethyl)amino)methyl)pyridin-2-yl)-6-(3-((4-methyl-4H-1,2,4-triazol-3-yl)methyl)oxetan-3-yl)isoindolin-1-one], in assay [1], the IC50 is under 80 nM. Further, the EC50 in assay [2] is under 300 nM.

Consider `C[C@@H](NCC1CC1)c1cc(Cl)nc(N2Cc3ccc(C4(Cc5nncn5C)COC4)cc3C2=O)c1` (single isomer, unassigned) [Compound 166], for which the IC50 in assay [1] is under 80 nM. Moreover, the EC50 in assay [2] was under 300 nM.

`C[C@H]1CCCN(Cc2cc(Br)cc(N3Cc4ccc(C5(Cc6nncn6C)COC5)cc4C3=O)c2)C1` [Compound 10, (S)-2-(3-Bromo-5-((3-methylpiperidin-1-yl)methyl)phenyl)-6-(3-((4-methyl-4H-1,2,4-triazol-3-yl)methyl)oxetan-3-yl)isoindolin-1-one]: the IC50 in assay [1] is under 80 nM. Moreover, the EC50 in assay [2] was under 300 nM.

Regarding `Cn1cnnc1CC1(c2ccc3c(c2)C(=O)N(c2cc(CNCC4CCC4)cc(Cl)n2)C3)CC(C#N)C1` (stereo not shown) [Compound 182, 3-(2-(6-Chloro-4-(((cyclobutylmethyl)amino)methyl)pyridin-2-yl)-3-oxoiso-indolin-5-yl)-3-((4-methyl-4H-1,2,4-triazol-3-yl)methyl)cyclobutane-1-carbonitrile], in assay [1], the IC50 is under 80 nM. Besides, the EC50 in assay [2] is under 300 nM.

As to `C[C@@H](NC1CCCC1)c1cc(Cl)nc(N2Cc3ccc(C4(Cc5nncn5C)COC4)cc3C2=O)c1` (single isomer, unassigned) [Compound 232], in assay [1], the IC50 is under 80 nM. Also, the EC50 in assay [2] was under 300 nM.

Consider `Cn1cnnc1CC1(c2ccc3c(c2)C(=O)N(c2cc(CNC4(C)CCC4)cc(C(F)(F)F)n2)C3)COC1` [Compound 88, 6-(3-((4-Methyl-4H-1,2,4-triazol-3-yl)methyl)oxetan-3-yl)-2-(4-(((1-methyl-cyclobutyl)amino)methyl)-6-(trifluoromethyl)pyridin-2-yl)isoindolin-1-one], for which the IC50 in assay [1] was in the range of 300 to 5000 nM. For the same compound, in assay [2], the EC50 fell in the range of 300 to 1000 nM.

For `Cc1cc([C@@H](C)NC2CCCC2)cc(N2Cc3ccc(-c4ccc(Cl)cc4-c4nncn4C)cc3C2=O)n1` (single isomer, unassigned) [Compound 126, 6-(4-Chloro-2-(4-methyl-4H-1,2,4-triazol-3-yl)phenyl)-2-(4-(1-(cyclopentyl-amino)ethyl)-6-methylpyridin-2-yl)isoindolin-1-one], in assay [1], the IC50 is under 80 nM. The EC50 in assay [2] was under 300 nM.

Regarding `CC1CN(Cc2cc(Cl)nc(N3Cc4ccc(C5(Cc6nncn6C)COC5)cc4C3=O)c2)CCC1(F)F` (stereo not shown) [Compound 178], the IC50 in assay [1] was under 80 nM. For the same compound, the EC50 in assay [2] fell in the range of 300 to 1000 nM.

Turning to `Cn1cnnc1-c1cc(Cl)ccc1-c1ccc2c(c1)C(=O)N(c1cc(CNC[C@@H]3CCCO3)cc(Cl)n1)C2` (single isomer, unassigned) [Compound 123, 6-(4-Chloro-2-(4-methyl-4H-1,2,4-triazol-3-yl)phenyl)-2-(6-chloro-4-((((tetra-hydrofuran-2-yl)methyl)amino)methyl)pyridin-2-yl)isoindolin-1-one], the IC50 in assay [1] was under 80 nM. Further, in assay [2], the EC50 was 300 to 1000 nM.

Turning to `Cc1cc(C(C)NCC2CC(F)(F)C2)cc(N2Cc3ccc(-c4ccc(Cl)cc4-c4nncn4C)cc3C2=O)n1` (stereo not shown) [Compound 281, 6-(4-Chloro-2-(4-methyl-4H-1,2,4-triazol-3-yl)phenyl)-2-(4-(1-(((3,3-difluoro-cyclobutyl)methyl)amino)ethyl)-6-methylpyridin-2-yl)isoindolin-1-one], the IC50 in assay [1] was under 80 nM. The EC50 in assay [2] is under 300 nM.

`C[C@@H]1CCN(Cc2cc(Cl)nc(N3Cc4ccc(C5(Cc6nncn6C)COC5)cc4C3=O)c2)C1` [Compound 68, (R)-2-(6-Chloro-4-((3-methylpyrrolidin-1-yl)methyl)pyridin-2-yl)-6-(3-((4-methyl-4H-1,2,4-triazol-3-yl)methyl)oxetan-3-yl)isoindolin-1-one]: in assay [1], the IC50 lay within 80 to 300 nM. For the same compound, the EC50 in assay [2] lay within 300 to 1000 nM.

On to `Cn1cnnc1CC1(c2ccc3c(c2)C(=O)N(c2cc(CNCC4(F)CCC4)cc(Cl)n2)C3)COC1` [Compound 185], for which the IC50 in assay [1] is under 80 nM. Moreover, the concentration for a half-maximal effect (EC50) in assay [2] fell in the range of 1000 to 10000 nM.
